Experiments:
[1] = test system: established cell line from human large intestine cancer; assay: MTT cytotoxicity assay (anticancer effect); assay type: cell-based; settings: for viability at 10 µM / viability at 100 µM / viability at 1 µM: Homo sapiens, read-out: Survival rate of cancer cells; for viability at 10 µM / viability at 100 µM / viability at 1 µM / Survival rate of cancer cells: 48 hours incubation; for anticancer effect compared to MMC: concentration of 100 μM/L; for Survival rate of cells: 100 μM, MTT assay
Description: Cytotoxicity was determined as shown below using MTT method proposed by Mosmann et al. (Mosmann, T.; Rapid colorimetric assay for cellular growth and survival: application proliferation and cytotoxicity assays. J. Immunol. Meth. 65: 55-63, 1983). An established cell line from human large intestine cancer was adjusted on a 10% FCS-containing RPMI 1640 culture solution to have 5×10^3 cells/[…], plated in a 96-well microplate, and incubated for 48 hours. Then, the resultant was added with […] of a peroxide, and incubated under a 5% CO2 condition at 37° C. for 48 hours to determine cytotoxicity by MTT assay^1. MTT assay: Upon completion of the incubation, […] of MTT reagent (5 mg/ml in PBS) was added to each well, and then the formazan left on the bottom of the plate was added with 0.04N HCl to dissolve in isopropanol. OD was measured at a test wavelength and at a reference wavelength of 630 nm.
Survival rate in percentage was calculated by the following equation: Survival rate=(OD test value/OD reference value)×100 (%)

[2] = Solid-state reaction heat by differential thermal analyzer (DSC-50); assay type: physicochemical; settings: for Solid reaction heat: solid state, heated to 80-180° C.
Description: (§1) Measurement of reaction heat: heat generated by above-mentioned compounds was measured by a differential thermal analyzer.
Heat measurement of a chemiluminescent system peroxide in the solid state was conducted using a differential thermal analyzer as follows: 2 to 3 mg of the peroxide was weighed, filled into an aluminum capsule, and heated gradually to 80-180° C. by DSC-50 (Shimadzu Corporation) to measure the generated heat.
Measurement of reaction heat: heat generated from above-mentioned compounds was measured by the differential thermal analyzer in accordance with above-mentioned [Measurement I]. Thermal measurement of a dioxetane compound in the solid state was carried out as follows: 2 to 3 mg of the dioxetane compound was weighed, filled into an aluminum capsule, and heated gradually to 80-180° C. by DSC-50 (Shimadzu Corporation) to measure the generated heat.

[3] = Solution reaction heat of chemiluminescent reaction started with 1N KOH/MeOH; assay type: physicochemical
Description: Reaction heat and chemiluminescent efficiency relating to chemiluminescent reaction of the peroxides (Chemical formula A to Chemical formula L) were measured. Further, the amount of imidazole formed that indicates generation efficiency of singlet oxygen generated by this reaction was measured.
as §1

SMILES	viability at 10 µM ([1]; anticancer agent 10 μM/ml) [%]	viability at 100 µM ([1]; anticancer agent 100 μM/ml) [%]	viability at 1 µM ([1]; anticancer agent 1 μM/ml) [%]	Solid reaction heat ([2]; peroxides) [kcal/mol]	Solution Reaction heat [3] [kcal/mol]	also measured
OOC1(c2ccccc2)N=C(c2ccccc2O)N=C1c1ccccc1 (centres unmarked) [Chemical formula E, 4-Hydroperoxy-2-(2-hydroxyphenyl)-4,5-diphenyl-4H-isoimidazole]	88.1	11.8	–	–	–	anticancer effect compared to MMC [1]: comparable to the commercially available MMC
OOC1(c2ccccc2)N=C(c2ccc(O)cc2)N=C1c1ccccc1 (centres unmarked) [Chemical formula C, 4-Hydroperoxy-2-(4-hydroxyphenyl)-4,5-diphenyl-4H-imidazole]	82.2	11.1	91.9	53.6	–	anticancer effect compared to MMC [1]: comparable to the commercially available MMC; melting point: 125 to 127 °C (dec.)
Nc1ccc(C2=NC(OO)(c3ccccc3)C(c3ccccc3)=N2)cc1 (centres unmarked) [Chemical formula H, 2-(4-Aminophenyl)-4-hydroperoxy-4,5-diphenyl-4H-isoimidazole]	97.5	87.4	100	35.3	46.0	–
CC(C)(C)[Si](C)(C)OOC1(c2ccccc2)N=C(c2ccccc2)N=C1c1ccccc1 (centres unmarked) [Chemical formula I, 4-t-Butyldimethylsilylperoxy-2,4,5-triphenyl-4H-isoimidazole]	95.9	60.6	97.2	91.4	–	melting point: 93.5 to 96 °C
OOC1(c2cccc(O)c2)N=C(c2ccccc2)N=C1c1cccc(O)c1 (centres unmarked) [Chemical formula F, 4-Hydroperoxy-4,5-bis(3-hydroxyphenyl)-2-phenyl-4H-isoimidazole]	87.4	42.2	–	–	–	–
COc1ccc(C2(OC)OOC23C2CC4CC(C2)CC3C4)cc1 (centres unmarked) [Chemical formula M, 3-(2′-Spiroadamantane)-4-methoxy-4-(4″-methoxy)phenyl-1,2-dioxetane]	–	–	–	–	–	Survival rate of cells [1]: 55%; Solid reaction heat ([2]; dioxetanes): 68.8 kcal/mol
OOC1(c2ccccc2)N=C(c2ccccc2)N=C1c1ccccc1 (centres unmarked) [Chemical formula A, 4-Hydroperoxy-2,4,5-triphenyl-4H-isoimidazole]	100	78.3	100	18.7	53.8	melting point: 108 to 110 °C (dec.)
O=[N+]([O-])c1ccc(C2=NC(OO)(c3ccccc3)C(c3ccccc3)=N2)cc1 (centres unmarked) [Chemical formula J]	–	–	–	52.3	48.7	–
Cc1cc(C)c(C2=NC(OO)(c3ccccc3)C(c3ccccc3)=N2)c(C)c1 (centres unmarked) [Chemical formula L, 4-Hydroperoxy-2-(2′,4′,6′-trimethylphenyl)-4,5-diphenyl-4H-isoimidazole]	–	–	–	50.5	54.0	–
OOC1(c2ccccc2)N=C(c2cccc(O)c2)N=C1c1ccccc1 (centres unmarked) [Chemical formula D]	92.2	71.2	93.3	47.6	–	–
OOC1(c2ccccc2)N=C(c2cccc(C3=NC(OO)(c4ccccc4)C(c4ccccc4)=N3)c2)N=C1c1ccccc1 (centres unmarked) [Chemical formula Q]	–	–	–	–	–	generation heat [2]: 30.5 kcal/mol
OOC1(c2ccc3c(c2)OCCOCCOCCOCCO3)N=C(c2ccccc2)N=C1c1ccc2c(c1)OCCOCCOCCOCCO2 (centres unmarked) [Chemical formula G, Bis(crown ether)iophineperoxide]	87.2	48.2	–	–	–	–
COc1cccc(C2(OC)OOC23C2CC4CC(C2)CC3C4)c1 (centres unmarked) [Chemical formula N, 3-(2′-Spiroadamantane)-4-methoxy-4-(3″-methoxy)phenyl-1,2-dioxetane]	–	–	–	–	–	Survival rate of cells [1]: 67%; Solid reaction heat ([2]; dioxetanes): 66.8 kcal/mol
CN(C)c1ccc(C2=NC(OO)(c3ccc(F)cc3)C(c3ccc(F)cc3)=N2)cc1 (centres unmarked) [Chemical formula B, 4,5-Bis(4-fluorophenyl)-4-hydroperoxy-2-(4-dimethylaminophenyl)-4H-isoimidazole]	93.7	37	100	61.0	66.3	melting point: 125 to 128 °C (dec.)
O=Cc1ccc(C2=NC(OO)(c3ccccc3)C(c3ccccc3)=N2)cc1 (centres unmarked) [Chemical formula K, 2-(4-Formylphenyl)-4-hydroperoxy-4,5-diphenyl-4H-isoimidazole]	–	–	–	15.0	22.4	–
OOC1(c2ccccc2)N=C(c2ccc(C3=NC(OO)(c4ccccc4)C(c4ccccc4)=N3)cc2)N=C1c1ccccc1 (centres unmarked) [Chemical formula O]	–	–	–	–	–	generation heat [2]: 47.1 kcal/mol
CC(C)(C)[Si](C)(C)OOC1(c2ccccc2)N=C(c2ccc(C3=NC(OO[Si](C)(C)C(C)(C)C)(c4ccccc4)C(c4ccccc4)=N3)cc2)N=C1c1ccccc1 (centres unmarked) [Chemical formula P]	–	–	–	–	–	generation heat [2]: 147 kcal/mol
CC(C)(C)[Si](C)(C)OOC1(c2ccccc2)N=C(c2cccc(C3=NC(OO[Si](C)(C)C(C)(C)C)(c4ccccc4)C(c4ccccc4)=N3)c2)N=C1c1ccccc1 (centres unmarked) [Chemical formula R]	–	–	–	–	–	generation heat [2]: 143 kcal/mol
CO[C@@]12[C@H](COC(N)=O)C3=C(C(=O)C(C)=C(N)C3=O)N1C[C@@H]1N[C@@H]12 [MMC, mitomycin C, reference compound]	–	–	–	–	–	Survival rate of cancer cells ([1]; anticancer agent 1 μM/ml): 65.0%; Survival rate of cancer cells ([1]; anticancer agent 10 μM/ml): 28.0%; Survival rate of cancer cells ([1]; anticancer agent 100 μM/ml): 14.5%

Reference: patent US20070112061A1, “Heat- or singlet oxygen-generating agents and cancer treatment compositions comprising organic peroxide or chemiluminescent compound” (priority 2004, published 2007)
